{
  "source": "patent US20230310434A1",
  "about": "“METHODS OF REDUCING THE LIKELIHOOD OF CARCINOID HEART DISEASE IN PATIENTS WITH NEUROENDOCRINE TUMORS” (TerSera Therapeutics LLC, priority 2022, published 2023)",
  "origin": "cited, not measured here",
  "key": {"[1]": {"test_system": "patients with carcinoid syndrome not adequately controlled with SSA therapy", "conditions": "TELESTAR; TE 250 or 500 mg three times daily; patients on stable dose SSA"}, "[2]": {"test_system": "patients with carcinoid syndrome (CS) diarrhea", "conditions": "TELECAST"}, "[3]": {"conditions": "TE 250 or 500 mg three times daily, patients on stable dose SSA"}},
  "data": [
    {"smiles": "CCOC(=O)[C@@H](N)Cc1ccc(-c2cc(O[C@H](c3ccc(Cl)cc3-n3ccc(C)n3)C(F)(F)F)nc(N)n2)cc1", "note": "[TE, (S)-ethyl 2-amino-3-(4-(2-amino-6-((R)-1-(4-chloro-2-(3-methyl-1H-pyrazol-1-yl)phenyl)-2,2,2-trifluoroethoxy)pyrimidin-4-yl)phenyl)propanoate]", "values": [
      {"measurement": "frequency of bowel movements", "setting": "[1]", "value": "reduced"},
      {"measurement": "urinary 5-HIAA levels", "setting": "[1]", "value": "reduced"},
      {"measurement": "efficacy when added to SSAs to treat carcinoid syndrome diarrhea", "setting": "[2]; TE 250 or 500 mg three times daily added to SSAs", "value": "effective"},
      {"measurement": "frequency of bowel movements", "setting": "[2]; [3]", "value": "reduced"},
      {"measurement": "urinary 5-HIAA levels", "setting": "[2]; [3]", "value": "reduced"}
    ]}
  ]
}
